Experimental data: ChEMBL document CHEMBL1201862, “PubChem BioAssay data set” (2004)
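Grown in 96-well plates, cells were treated for 48 hours with each compound at five concentrations. Insufficient inhibition: endpoint recorded as highest concentration tested. Abbreviation: GI50, concentration required for 50% inhibition of growth.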 Calls of active or inactive are those of the source. No stated cut-off is given here; in the data, active = GI50 up to about 1.1 µM and inactive = higher.

What was measured:
Test in all cases: NCI-60 cell line screen, 48 h
[1] = tested on: OVCAR-8
[2] = tested on: A498
[3] = tested on: TK-10
[4] = tested on: IGROV-1
[5] = tested on: KM12
[6] = tested on: RXF 393
[7] = tested on: SF-268
[8] = tested on: LOX IMVI
[9] = tested on: SF-539
[10] = tested on: SR
[11] = tested on: SW-620
[12] = tested on: HT-29
[13] = tested on: UO-31
[14] = tested on: SF-295
[15] = tested on: NCI-H226
[16] = tested on: COLO 205
[17] = tested on: HOP-92
[18] = tested on: CCRF-CEM

With `O=C1/C(=C/c2ccccc2)CCCC/C1=C\c1ccccc1` the GI50 [1] was 75.3 µM (inactive), the GI50 [2] was > 100 µM (inactive) and the GI50 [3] was > 100 µM (inactive). For the same compound, the GI50 [4] was > 100 µM (inactive), the GI50 [5] was 41.2 µM (inactive) and the GI50 [6] was 27.2 µM (inactive). For the same compound, the GI50 [7] was 88.9 µM (inactive), the GI50 [8] was 53.7 µM (inactive) and the GI50 [9] was > 100 µM (inactive). The GI50 [10] was 12.8 µM (inactive), the GI50 [11] was 58.5 µM (inactive) and the GI50 [12] was 16.2 µM (inactive). The GI50 [13] was 55 µM (inactive), the GI50 [14] was 72.3 µM (inactive) and the GI50 [15] was 39.4 µM (inactive). For the same compound, the GI50 [16] was 39.2 µM (inactive) and the GI50 [17] was 40.1 µM (inactive).

With `CCC(O)(c1ccc(OC)cc1)C(c1ccc(OCc2ccccc2)cc1)c1ccc(OCc2ccccc2)cc1` (stereo unspecified) the GI50 [1] was > 100 µM (inactive), the GI50 [2] was > 100 µM (inactive) and the GI50 [3] was > 100 µM (inactive). The GI50 [4] was > 100 µM (inactive), the GI50 [5] was > 100 µM (inactive) and the GI50 [6] was > 100 µM (inactive). The GI50 [7] was > 100 µM (inactive), the GI50 [8] was > 100 µM (inactive) and the GI50 [9] was > 100 µM (inactive). The GI50 [10] was > 100 µM (inactive), the GI50 [11] was > 100 µM (inactive) and the GI50 [12] was > 100 µM (inactive). For the same compound, the GI50 [13] was > 100 µM (inactive), the GI50 [18] was > 100 µM (inactive) and the GI50 [14] was > 100 µM (inactive). The GI50 [15] was > 100 µM (inactive), the GI50 [16] was > 100 µM (inactive) and the GI50 [17] was > 100 µM (inactive).

With `CC1=Nc2c(ccc3c2C(=O)c2ccccc2C3=O)NC(c2ccncc2)C1` (stereo unspecified) the GI50 [1] was 8.55 µM (inactive), the GI50 [2] was 23.8 µM (inactive) and the GI50 [3] was > 100 µM (inactive). For the same compound, the GI50 [4] was 4.94 µM (inactive), the GI50 [5] was 5.07 µM (inactive) and the GI50 [6] was > 10 µM (inactive). The GI50 [7] was > 10 µM (inactive), the GI50 [8] was 34.8 µM (inactive) and the GI50 [9] was > 10 µM (inactive). The GI50 [10] was 0.135 µM (active), the GI50 [11] was 52.5 µM (inactive) and the GI50 [12] was > 10 µM (inactive). The GI50 [13] was 4.72 µM (inactive), the GI50 [18] was 0.515 µM (active) and the GI50 [14] was > 10 µM (inactive). The GI50 [15] was > 10 µM (inactive), the GI50 [16] was > 10 µM (inactive) and the GI50 [17] was > 10 µM (inactive).

In the case of `O=C(N/C(=C\c1cccc([N+](=O)[O-])c1)c1nc2c(O)nc(S)nc2[nH]1)c1ccccc1`, the GI50 [1] was > 100 µM (inactive), the GI50 [2] was > 100 µM (inactive) and the GI50 [4] was > 100 µM (inactive). For the same compound, the GI50 [5] was > 100 µM (inactive), the GI50 [6] was 45.5 µM (inactive) and the GI50 [7] was 48.2 µM (inactive). The GI50 [8] was > 100 µM (inactive), the GI50 [9] was > 100 µM (inactive) and the GI50 [10] was > 100 µM (inactive). For the same compound, the GI50 [11] was > 100 µM (inactive), the GI50 [12] was > 100 µM (inactive) and the GI50 [13] was 24.5 µM (inactive). For the same compound, the GI50 [18] was > 100 µM (inactive), the GI50 [14] was > 100 µM (inactive) and the GI50 [15] was > 100 µM (inactive). For the same compound, the GI50 [16] was > 100 µM (inactive) and the GI50 [17] was > 100 µM (inactive).

For `COC(=O)C(Cc1nc2ccc(Cl)cc2nc1O)C(=O)C(=O)Nc1ccccc1[N+](=O)[O-]` (stereo unspecified), the GI50 [1] was > 100 µM (inactive), the GI50 [2] was > 100 µM (inactive) and the GI50 [3] was > 100 µM (inactive). For the same compound, the GI50 [4] was > 100 µM (inactive), the GI50 [5] was > 100 µM (inactive) and the GI50 [6] was > 100 µM (inactive). The GI50 [7] was > 100 µM (inactive), the GI50 [8] was > 100 µM (inactive) and the GI50 [9] was > 100 µM (inactive). For the same compound, the GI50 [10] was > 100 µM (inactive), the GI50 [11] was > 100 µM (inactive) and the GI50 [12] was > 100 µM (inactive). The GI50 [13] was > 100 µM (inactive), the GI50 [18] was > 100 µM (inactive) and the GI50 [14] was > 100 µM (inactive). The GI50 [15] was > 100 µM (inactive) and the GI50 [16] was > 100 µM (inactive).

`C=CCC1(CN(C)C)CC/C(=C\c2ccc3c(c2)OCO3)C1=O` (stereo unspecified) was tested, and the GI50 [1] was 48.4 µM (inactive), the GI50 [2] was 33.7 µM (inactive) and the GI50 [3] was > 100 µM (inactive). For the same compound, the GI50 [4] was 60.5 µM (inactive), the GI50 [5] was 42.3 µM (inactive) and the GI50 [6] was 59.8 µM (inactive). For the same compound, the GI50 [7] was 91 µM (inactive), the GI50 [8] was 97.1 µM (inactive) and the GI50 [9] was 88.9 µM (inactive). The GI50 [10] was 41 µM (inactive), the GI50 [11] was 35.1 µM (inactive) and the GI50 [12] was 36 µM (inactive). For the same compound, the GI50 [13] was 45 µM (inactive), the GI50 [18] was 29.2 µM (inactive) and the GI50 [14] was > 100 µM (inactive). The GI50 [15] was > 100 µM (inactive), the GI50 [16] was 23.7 µM (inactive) and the GI50 [17] was 89.9 µM (inactive).

For `OCC(O)COc1c(Cl)cc(Cl)cc1Cl` (stereo unspecified), the GI50 [1] was > 100 µM (inactive), the GI50 [2] was > 100 µM (inactive) and the GI50 [3] was > 100 µM (inactive). For the same compound, the GI50 [4] was > 100 µM (inactive), the GI50 [5] was > 100 µM (inactive) and the GI50 [6] was > 100 µM (inactive). For the same compound, the GI50 [7] was > 100 µM (inactive), the GI50 [8] was > 41.3 µM (inactive) and the GI50 [9] was > 100 µM (inactive). The GI50 [10] was 61.7 µM (inactive), the GI50 [11] was > 34 µM (inactive) and the GI50 [12] was > 100 µM (inactive). The GI50 [13] was > 100 µM (inactive), the GI50 [18] was > 41.8 µM (inactive) and the GI50 [14] was > 100 µM (inactive). For the same compound, the GI50 [15] was > 100 µM (inactive), the GI50 [16] was > 68.7 µM (inactive) and the GI50 [17] was > 100 µM (inactive).

In the case of `CC1(C)COC(c2ccc(C(F)(F)F)cc2C(O)c2ccc3ccccc3c2)=N1` (stereo unspecified), the GI50 [1] was > 10 µM (inactive), the GI50 [2] was > 10 µM (inactive) and the GI50 [3] was > 10 µM (inactive). The GI50 [4] was > 10 µM (inactive), the GI50 [5] was > 10 µM (inactive) and the GI50 [6] was 16 µM (inactive). For the same compound, the GI50 [7] was 82 µM (inactive), the GI50 [8] was > 10 µM (inactive) and the GI50 [9] was 64.4 µM (inactive). For the same compound, the GI50 [10] was > 10 µM (inactive), the GI50 [11] was > 10 µM (inactive) and the GI50 [12] was > 10 µM (inactive). The GI50 [13] was > 10 µM (inactive), the GI50 [18] was > 10 µM (inactive) and the GI50 [14] was 20.7 µM (inactive). For the same compound, the GI50 [15] was 51.3 µM (inactive), the GI50 [16] was > 10 µM (inactive) and the GI50 [17] was 41.4 µM (inactive).

In the case of `CCN(CC)c1c(-c2c(OC(C)C)c(=O)c2=O)c(=O)n2ccsc2c1OC(C)=O`, the GI50 [1] was > 100 µM (inactive), the GI50 [2] was > 100 µM (inactive) and the GI50 [3] was > 100 µM (inactive). The GI50 [4] was 89.9 µM (inactive), the GI50 [5] was > 100 µM (inactive) and the GI50 [7] was > 100 µM (inactive). The GI50 [8] was > 100 µM (inactive), the GI50 [10] was > 100 µM (inactive) and the GI50 [11] was > 100 µM (inactive). The GI50 [12] was > 100 µM (inactive), the GI50 [13] was > 100 µM (inactive) and the GI50 [18] was > 100 µM (inactive). For the same compound, the GI50 [14] was > 100 µM (inactive), the GI50 [15] was > 100 µM (inactive) and the GI50 [16] was > 100 µM (inactive). For the same compound, the GI50 [17] was > 100 µM (inactive).

With `COC1[C@@H](OC(C)=O)[C@@H](NC(=O)C(Cl)(Cl)Cl)C(I)[C@@H](N2C(=O)c3ccccc3C2=O)[C@H]1OC` (stereo partly specified) the GI50 [1] was > 100 µM (inactive), the GI50 [2] was 48.6 µM (inactive) and the GI50 [4] was > 100 µM (inactive). For the same compound, the GI50 [5] was 6.59 µM (inactive), the GI50 [6] was > 100 µM (inactive) and the GI50 [7] was > 100 µM (inactive). The GI50 [8] was > 100 µM (inactive), the GI50 [9] was 50.2 µM (inactive) and the GI50 [10] was > 100 µM (inactive). The GI50 [11] was > 100 µM (inactive), the GI50 [12] was > 100 µM (inactive) and the GI50 [18] was > 100 µM (inactive). The GI50 [14] was 36.6 µM (inactive), the GI50 [15] was > 100 µM (inactive) and the GI50 [16] was > 100 µM (inactive). For the same compound, the GI50 [17] was 47.5 µM (inactive).

For `COc1ccc(/C=C2\CCC(CCN(C)C)(C3=CCCC3)C2=O)cc1` (stereo unspecified), the GI50 [1] was 16.8 µM (inactive), the GI50 [2] was 17.7 µM (inactive) and the GI50 [3] was 16.7 µM (inactive). The GI50 [4] was 16.7 µM (inactive), the GI50 [5] was 18 µM (inactive) and the GI50 [6] was 7.6 µM (inactive). The GI50 [7] was 18.2 µM (inactive), the GI50 [8] was 16.6 µM (inactive) and the GI50 [9] was 16.1 µM (inactive). For the same compound, the GI50 [10] was 27.2 µM (inactive), the GI50 [11] was 16.8 µM (inactive) and the GI50 [12] was 15.5 µM (inactive). The GI50 [13] was 14.8 µM (inactive), the GI50 [18] was 17.1 µM (inactive) and the GI50 [14] was 18.7 µM (inactive). The GI50 [15] was 20.6 µM (inactive), the GI50 [16] was 12.8 µM (inactive) and the GI50 [17] was 20.7 µM (inactive).
